Results as given in PMC3486420, “In Vitro and In Vivo Characterizations of Chiglitazar, a Newly Identified PPAR Pan-Agonist” (PPAR Research, 2012).

Assays:
PPARγ [1] = target: T1, PPARγ (Homo sapiens, UniProt P37231); assay: PPARγ transactivation reporter gene assay in SMMC-7721 cells; type: cell-based; conditions: SMMC-7721 cells
T1 construct: expressed in transfected cells; host or cells: SMMC-7721 or U2OS
T1 sequence (P37231 1-505): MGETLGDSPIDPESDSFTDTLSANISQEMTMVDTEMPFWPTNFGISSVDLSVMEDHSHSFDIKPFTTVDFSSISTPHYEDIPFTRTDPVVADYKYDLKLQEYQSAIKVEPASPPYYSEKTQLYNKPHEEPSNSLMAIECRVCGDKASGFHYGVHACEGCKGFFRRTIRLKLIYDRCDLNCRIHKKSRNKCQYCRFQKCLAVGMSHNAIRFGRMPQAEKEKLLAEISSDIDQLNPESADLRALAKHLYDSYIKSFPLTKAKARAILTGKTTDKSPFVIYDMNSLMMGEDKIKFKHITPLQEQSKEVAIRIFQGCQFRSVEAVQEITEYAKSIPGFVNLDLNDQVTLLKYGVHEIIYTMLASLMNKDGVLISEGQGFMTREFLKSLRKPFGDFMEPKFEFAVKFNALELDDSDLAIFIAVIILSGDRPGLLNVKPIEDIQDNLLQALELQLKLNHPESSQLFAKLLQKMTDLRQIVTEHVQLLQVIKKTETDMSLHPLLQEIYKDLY
T1 sequence (P19793 1-462 partner): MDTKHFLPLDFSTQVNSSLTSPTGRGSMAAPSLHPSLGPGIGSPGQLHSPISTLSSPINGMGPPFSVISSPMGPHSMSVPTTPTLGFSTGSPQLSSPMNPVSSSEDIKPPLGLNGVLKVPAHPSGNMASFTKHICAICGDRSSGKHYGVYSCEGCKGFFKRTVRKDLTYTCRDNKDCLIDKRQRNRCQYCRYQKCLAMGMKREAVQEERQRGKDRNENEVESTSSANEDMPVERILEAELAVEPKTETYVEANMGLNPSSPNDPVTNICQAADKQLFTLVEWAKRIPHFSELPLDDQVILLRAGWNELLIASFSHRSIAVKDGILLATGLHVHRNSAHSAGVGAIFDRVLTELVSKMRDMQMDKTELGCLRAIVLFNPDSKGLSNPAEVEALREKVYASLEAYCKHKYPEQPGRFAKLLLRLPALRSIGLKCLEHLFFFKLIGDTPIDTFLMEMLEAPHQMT

C2C12 cells = assay: Gene expression by RT-PCR in C2C12 cells; type: cell-based, mouse; conditions: 48 h, 10 μM chiglitazar, 50 μM WY14643, 5 μM 2-Bro, compared with rosiglitazone 10 μM
Source text: cDNAs for human retinoid X receptor (hRXR), PPARα, PPARγ, and PPARδ were obtained by reverse transcriptase polymerase chain reaction (RT-PCR) from human liver or adipose tissues. Amplified cDNAs were cloned into pcDNA3.1 expression vector (Invitrogen, Carlsbad, CA, USA). The integrity and fidelity of all constructs made were verified by DNA sequencing. Luciferase reporter plasmids, ACOX promoter for PPARγ and pHD(X3)-luc for PPARα, were kind gifts of Drs. TM McIntyre (University of Utah, USA) and RA Rachubinski (University of Alberta, Canada), respectively. PPRE-luc for PPARδ was constructed based on the previous report by insertion of the annealed oligonucleotides having four copies of the CYP4A6 PPRE (4 × […]) into the upstream of the luciferase coding sequence in pGL3-promoter vector (Promega, Madison, WI, USA). pCMVβGal was purchased from Clontech (Palo Alto, CA, USA). The mouse 3T3-L1 preadipocyte cell line, skeletal muscle C2C12 cell line, and macrophage RAW267.4 cell line and the human osteosarcoma U2OS cell line were obtained from the American Type Culture Collection (ATCC, Rockville, MD, USA). The human hepatoma SMMC-7721 cell line was obtained from the Cell Culture Center of Chinese Academy of Medical Sciences (Beijing, China). Cell lines were cultured in medium of DMEM (3T3-L1, C2C12, and SMMC-7721), RPMI 1640 (RAW267.4), or McCoy's 5A (U2OS), containing 10% fetal bovine serum (FBS), 50 μg/mL streptomycin, and 50 units/mL penicillin at 37°C in a humidified incubator with 5% CO2.
Total RNA was extracted from cells or tissues with an RNeasy minikit (Qiagen, Valencia, CA, USA). The first-strand cDNA was synthesized using the oligo(dT) primers, followed by using SuperScript II reverse transcriptase (Invitrogen) according to the manufacturer's instructions. […] PCR products were analyzed by electrophoresis on a 1.5% agarose gel stained with ethidium bromide. […]

PPARγ [2] = target: T1, PPARγ; assay: PPARγ transactivation reporter gene assay in U2OS cells; type: cell-based
[3] = max response compared with Ros at 1 μM

For O=C(c1ccc(F)cc1)c1ccccc1NC(Cc1ccc(OCCn2c3ccccc3c3ccccc32)cc1)C(=O)O (centres unmarked) [Chi, 2-[(2-(4-fluorobenzoyl)phenyl)amino]-3-[4-(2-carbazolylethoxy)-phenyl]-propionic acid], which EC50 (PPARγ [1]; 24 h treatment, luciferase reporter, hRXR cotransfected, ia: inactive at 10 μM, read-out: PPARγ EC50) is on record?
The EC50 was 90 ± 20 nM.

What about the “PPARγ % Max” value (PPARγ [1]; [3]) of the same molecule?
The value was 105%.

And the “Expression of PPARα and/or PPARδ downstream genes CPT-1a and CPT-1b” value (C2C12 cells)?
Its value is “more significantly upregulated”.

What about the EC50 (PPARγ [2]; 24 h treatment, luciferase reporter, hRXR cotransfected, ia: inactive at 10 μM) of the same molecule?
The EC50 was 80 ± 20 nM.

What about the “PPARγ % Max” value (PPARγ [2]; [3]) of the same molecule?
The value was 117%.
